Test results reported in article PMC4013053, “Identification of Selective Small Molecule Inhibitors of the Nucleotide-Binding Oligomerization Domain 1 (NOD1) Signaling Pathway” (PLoS ONE, 2014).

How the values were obtained:
[1] = target: T1, NOD1 (Homo sapiens, UniProt Q9Y239); experiment: Tri-DAP-stimulated IL-8 secretion in primary human monocytes; format: cell-based; design: Monocytes were purified from heparinized human whole blood; endogenous in cells; host or cells: primary human blood monocytes; details: human primary peripheral blood monocytes, IL-8 released into medium; read-out: IC50 Monocyte Tri-DAP
T1 sequence (Q9Y239 1-953): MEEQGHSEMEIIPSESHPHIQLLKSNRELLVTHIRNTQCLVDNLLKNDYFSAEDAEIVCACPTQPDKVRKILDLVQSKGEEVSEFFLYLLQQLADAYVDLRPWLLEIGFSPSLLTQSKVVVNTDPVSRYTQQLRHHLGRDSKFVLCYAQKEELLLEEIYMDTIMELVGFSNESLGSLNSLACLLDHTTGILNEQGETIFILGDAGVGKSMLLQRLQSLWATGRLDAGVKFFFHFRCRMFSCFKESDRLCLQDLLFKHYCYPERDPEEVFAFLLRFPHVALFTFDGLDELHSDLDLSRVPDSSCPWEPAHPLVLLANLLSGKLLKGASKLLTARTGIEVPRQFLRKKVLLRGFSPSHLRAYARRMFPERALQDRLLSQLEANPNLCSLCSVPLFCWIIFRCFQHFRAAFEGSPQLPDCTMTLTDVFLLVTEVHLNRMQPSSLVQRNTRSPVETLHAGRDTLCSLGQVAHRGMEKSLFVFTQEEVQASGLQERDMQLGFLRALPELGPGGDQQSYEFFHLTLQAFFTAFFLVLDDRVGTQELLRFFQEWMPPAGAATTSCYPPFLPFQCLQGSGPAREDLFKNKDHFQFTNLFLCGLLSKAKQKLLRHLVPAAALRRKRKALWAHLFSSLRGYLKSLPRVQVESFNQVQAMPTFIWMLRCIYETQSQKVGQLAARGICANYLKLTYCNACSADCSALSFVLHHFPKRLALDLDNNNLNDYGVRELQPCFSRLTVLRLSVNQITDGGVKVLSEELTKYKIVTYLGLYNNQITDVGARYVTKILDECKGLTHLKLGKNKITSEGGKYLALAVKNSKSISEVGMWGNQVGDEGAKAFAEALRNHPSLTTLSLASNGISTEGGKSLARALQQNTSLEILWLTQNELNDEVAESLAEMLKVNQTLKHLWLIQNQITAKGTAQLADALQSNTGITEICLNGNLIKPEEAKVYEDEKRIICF
Experimental: Monocytes were purified from heparinized human whole blood by centrifugation on Ficoll (Histopaque 1077) followed by Percoll gradients. Monocyte purity was >95% by morphological assessment of Wright’s stained cytospins. Cells were seeded at 100,000 per well in 96-well plates in RPMI containing 10%HI-FBS, pre-incubated for 1 hour with compounds, and then stimulated with either 25 µg/mL Tri-DAP or 1 µg/mL MDP. The concentration of IL-8 in medium samples collected after 24-hour treatment was determined by HTRF whereas IL-1β, IL-6 and TNFα were measured using the MS6000 human pro-inflammatory-4 II tissue culture kit (Meso Scale Discovery).

[2] = target: T2, endogenous NOD2 (Homo sapiens, UniProt Q9HC29); experiment: MDP-stimulated IL-8 release in HCT116 cells; format: cell-based; details: for IC50: human colon carcinoma cells, IL-8 released into medium
T2 construct: Compound activity on endogenous NOD1 and NOD2 receptors was determined; host or cells: HCT116
T2 sequence (Q9HC29 whole entry): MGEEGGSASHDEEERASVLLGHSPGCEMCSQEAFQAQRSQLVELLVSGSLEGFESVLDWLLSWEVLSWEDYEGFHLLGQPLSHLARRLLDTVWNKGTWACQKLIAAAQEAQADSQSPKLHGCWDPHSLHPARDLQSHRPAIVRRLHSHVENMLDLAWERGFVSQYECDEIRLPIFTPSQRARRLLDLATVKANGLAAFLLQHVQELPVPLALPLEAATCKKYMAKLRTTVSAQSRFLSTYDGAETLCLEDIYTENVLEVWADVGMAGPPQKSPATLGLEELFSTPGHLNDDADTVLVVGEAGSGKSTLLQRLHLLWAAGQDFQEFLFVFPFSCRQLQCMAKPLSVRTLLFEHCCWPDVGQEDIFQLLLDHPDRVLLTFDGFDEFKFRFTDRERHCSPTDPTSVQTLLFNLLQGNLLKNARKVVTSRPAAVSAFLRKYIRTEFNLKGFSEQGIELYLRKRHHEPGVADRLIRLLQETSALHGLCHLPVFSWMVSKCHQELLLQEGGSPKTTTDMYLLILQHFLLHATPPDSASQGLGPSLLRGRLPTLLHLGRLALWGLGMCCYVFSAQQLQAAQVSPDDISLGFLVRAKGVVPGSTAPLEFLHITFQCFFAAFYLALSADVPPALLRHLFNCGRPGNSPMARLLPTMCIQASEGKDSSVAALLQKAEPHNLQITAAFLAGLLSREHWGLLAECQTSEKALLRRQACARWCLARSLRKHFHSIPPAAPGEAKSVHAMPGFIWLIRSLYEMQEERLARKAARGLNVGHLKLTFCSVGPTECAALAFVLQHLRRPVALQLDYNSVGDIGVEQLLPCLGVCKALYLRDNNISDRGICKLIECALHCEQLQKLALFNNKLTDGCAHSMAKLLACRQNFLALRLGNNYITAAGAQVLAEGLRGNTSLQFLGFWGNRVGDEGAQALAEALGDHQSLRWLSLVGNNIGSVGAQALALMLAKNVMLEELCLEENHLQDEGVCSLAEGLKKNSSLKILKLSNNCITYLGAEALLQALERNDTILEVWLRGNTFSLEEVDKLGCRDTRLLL
Experimental: For assay, cells were seeded into 96 well plates (90,000 cells/well) in DMEM containing 1% FBS and pre-incubated with compounds for 1 hour before addition of either 25 µg/mL Tri-DAP or 1 µg/mL MDP. The level of IL-8 released into medium after 24-hour incubation was determined by HTRF assay (Cisbio) as described above and fluorescence measured on an Envision model 2102 multilabel plate reader (Perkin Elmer). The activity of compounds against NOD1-induced type I interferon response was determined by inhibition of Tri-DAP stimulated IP-10 secretion in HT-29 cells, maintained in the same medium as for HCT116 cells. The HT-29 cells were seeded into 96 well plates (60,000 cells/well) in DMEM with 1% FBS, pre-incubated with compounds for 1 hour and stimulated for 24 hours with 50 µg/mL Tri-DAP. The concentration of IL-8 released into the medium was measured by HTRF as above, IP-10 was measured using the IP-10/CXCL10 Quantikine ELISA kit (R&D Systems), and IFNβ was measured using the MA6000 human IFN-β tissue culture kit (Meso Scale Discovery).

[3] = target: TLR2 (Homo sapiens, UniProt O60603); experiment: Pam2CSK4-stimulated IL-8 release in 293/hTLR2 cells; format: cell-based; details: IL-8 released into medium
TLR2, sequence (O60603 21-784): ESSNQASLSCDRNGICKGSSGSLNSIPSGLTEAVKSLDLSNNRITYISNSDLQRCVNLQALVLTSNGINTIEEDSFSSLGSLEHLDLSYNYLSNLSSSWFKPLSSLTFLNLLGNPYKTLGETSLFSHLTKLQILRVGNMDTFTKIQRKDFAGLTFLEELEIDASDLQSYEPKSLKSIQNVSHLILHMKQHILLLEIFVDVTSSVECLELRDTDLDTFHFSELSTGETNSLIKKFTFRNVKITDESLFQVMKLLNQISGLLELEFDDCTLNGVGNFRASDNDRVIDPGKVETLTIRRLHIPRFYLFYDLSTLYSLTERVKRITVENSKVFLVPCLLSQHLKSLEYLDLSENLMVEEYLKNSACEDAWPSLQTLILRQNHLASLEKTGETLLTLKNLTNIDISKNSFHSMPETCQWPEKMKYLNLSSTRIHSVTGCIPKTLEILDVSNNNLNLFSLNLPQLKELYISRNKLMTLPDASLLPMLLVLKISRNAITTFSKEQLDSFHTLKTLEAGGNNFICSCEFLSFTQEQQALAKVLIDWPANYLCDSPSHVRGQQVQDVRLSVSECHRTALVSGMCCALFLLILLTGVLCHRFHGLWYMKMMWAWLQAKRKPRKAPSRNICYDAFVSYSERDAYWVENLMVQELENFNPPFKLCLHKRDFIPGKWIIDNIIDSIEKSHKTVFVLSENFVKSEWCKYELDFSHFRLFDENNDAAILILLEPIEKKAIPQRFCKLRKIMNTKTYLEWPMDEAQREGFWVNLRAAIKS

[4] = target: T1, NOD1; experiment: iE-DAP-stimulated IL-8 release in 293/hNOD1 cells; format: cell-based
Experimental: Inhibitors of iE-DAP-stimulated IL-8 release were screened in a 1536-well assay in which 293/hNOD1 cells (5000 cells/well) in DMEM high glucose medium supplemented with 0.1% FBS and 10 µg/mL Blasticidin S were stimulated with 60 ng/mL (200 nM) iE-DAP (EC80) in the presence of 10 µM compounds. After 24 hours the amount of IL-8 secreted into the medium was determined by homogeneous time resolved fluorescence (HTRF) assay by the direct addition of a 1∶1 mix of europium cryptate and XL665-conjugated anti-IL-8 antibodies according to the manufacturer’s instructions (Cisbio). Fluorescence was measured after 2 hours in a ViewLux imager using UMB-AMC excitation and 618–671 nm emission filters (Perkin Elmer). […] Inhibition of TNFR1-induced IL-8 release was performed with 293/hNOD1 cells stimulated with 20 ng/mL (∼EC95) rhTNFα.
A high-throughput screen of about 2.2 million compounds was conducted for inhibitors of the NOD1 signaling pathway using suppression of iE-DAP stimulated IL-8 secretion in HEK293 cells stably expressing human NOD1 (293/hNOD1 cells). […] These assays were chosen to assess the selectivity of hits because the signaling pathways activated by these receptors converge at the level of the TAB/TAK1/IKK complex.

[5] = target: human serum albumin (Homo sapiens, UniProt P02768); experiment: Human serum albumin (HSA) binding; format: in vitro ADME
human serum albumin, sequence (P02768 25-609): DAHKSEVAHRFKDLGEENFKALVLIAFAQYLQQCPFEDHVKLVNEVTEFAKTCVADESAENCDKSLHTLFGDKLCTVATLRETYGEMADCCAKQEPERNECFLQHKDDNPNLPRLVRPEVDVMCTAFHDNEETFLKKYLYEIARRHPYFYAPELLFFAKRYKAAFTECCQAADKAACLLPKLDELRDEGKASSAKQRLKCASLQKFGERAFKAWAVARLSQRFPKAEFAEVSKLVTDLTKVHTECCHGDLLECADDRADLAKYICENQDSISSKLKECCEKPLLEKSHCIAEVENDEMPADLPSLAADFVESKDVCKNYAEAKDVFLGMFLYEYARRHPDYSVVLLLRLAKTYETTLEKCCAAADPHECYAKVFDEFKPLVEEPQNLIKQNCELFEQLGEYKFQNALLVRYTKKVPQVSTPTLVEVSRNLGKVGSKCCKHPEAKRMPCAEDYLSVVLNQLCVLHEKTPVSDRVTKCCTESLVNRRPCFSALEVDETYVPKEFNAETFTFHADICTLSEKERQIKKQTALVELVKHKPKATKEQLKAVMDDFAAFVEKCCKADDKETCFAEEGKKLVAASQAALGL
From the text: (§1) Physicochemical analyses of compounds were completed at GSK.

[6] = Immobilized artificial membrane (IAM) binding; format: physicochemical
From the text: as §1

[7] = system: α1-acid glycoprotein; experiment: α1-acid glycoprotein (AGP) binding; format: in vitro ADME
From the text: as §1

[8] = HEK293 stably expressing human NOD1, IL-8 released into medium, read-out: IC50 293/hNOD1 iE-DAP

Structure (SMILES) | IC50 [1] [nM] | IC50 [2] [nM] | IC50 [3] [nM] | IC50 [4, 8] [nM] | HSA binding [5] [%] | IAM binding [6] [log K] | AGP binding [7] [%] | IC50 ([4]; iE-DAP-stimulated IL-8 production in 293/hNOD1 cells, SAR figures, read-out: NOD1 XC50) [nM] | greatest inhibition of MDP-stimulated IL-8 release ([2]; HCT116, at high concentrations) [%]
Cc1nc2ccccc2c(=O)n1-c1ccc(Cl)c(NS(=O)(=O)c2ccccc2F)c1 [Compound 22] | 60 | > 15000 | > 50000 | 60 | – | – | – | – | –
Cn1c(=O)[nH]c(=O)c2c1nc(CCSc1ccccc1)n2Cc1ccccc1 [SB711] | 3200 | > 50000 | > 50000 | 600 | 95.94 | 2.41 | – | – | –
Cc1nc2ccc(NC(=O)c3cccc(NS(=O)(=O)c4ccc(F)cc4)c3)cc2s1 [GSK966] | 2000 | – | > 50000 | 3500 | 97.14 | 2.38 | 83.38 | – | –
Cc1ccc(S(=O)(=O)Nc2cccc(C(=O)Nc3ccc4nc(C)sc4c3)c2)cc1 [Compound 16] | 200 | – | > 50000 | 400 | 97.2 | 2.45 | 85.71 | 430 ± 100 | –
CCc1ccc(S(=O)(=O)Nc2cc(-n3c(C)nc4ccccc4c3=O)ccc2F)s1 [GSK223] | 1000 | > 50000 | > 50000 | 1000 | 97.38 | 1.68 | 80.81 | – | 30
